Measured values: US20090197819A1, “Compositions for improving and repairing skin” (priority 2007, published 2009)

Key:
skin = assay: Preliminary application of ribose to skin without penetrant; type: in vivo; details: topical, no penetrant
Source text: The skin is a barrier. Preliminary effects to determine the effect on improving skin by the application of ribose were unsuccessful, leading the Applicants to the realization that ribose may not have penetrated to the basal cells and dermis. To get penetration it is advantageous to provide a penetrant to increase the concentration of active ingredient at the dermis and epidermis. A preferred penetrant is ethanol, which will be incorporated into the composition at a concentration of 0.1 to 15%, most preferably 10% weight to volume. The active ingredient may be at a concentration of from 0.5 to 10%, preferably 1%, weight to volume.

skeletal muscle = details: oral administration; cited from earlier work
lymphocytes = details: previously shown by Applicants; cited from earlier work
Fibroblast cell cultures = assay: Recovery of ATP in cultured fibroblasts after hypoxic stress; type: cell-based; details: fibroblasts at about 80% confluence, six hours hypoxic atmosphere, fresh medium, inspected at 12, 24 and 48 hours; first experiment
Procedure: Based on this information, Applicants believe that the same effect might be shown in cell culture with skin cells. The first skin cell be tested in vitro was the fibroblast, the culture of which is well known. The Coriell Institute for medical research publishes a web site with detailed instructions, the teachings of which are incorporated by reference. (Http:/locus.umdnj.edu/cer/faq/fibro.html.) Fibroblast cell cultures were tested to determine an optimal level of ribose as compared to glucose control.
To determine a protective effect of ribose, test and control plates were grown to about 80% confluence and subjected to a simulated environmental stress, six hours under an hypoxic atmosphere. Following exposure, the medium was aspirated off the culture and fresh medium applied. Cultures were inspected at 12, 24 and 48 hours to determine recovery of ATP to pre-hypoxia levels.

## O=C[C@H](O)[C@H](O)[C@H](O)CO [D-ribose]
skin
  effect on improving skin by the application of ribose: unsuccessful
Skeletal muscle
  ATP levels in skeletal muscle: raises ATP levels
lymphocytes
  growth of lymphocytes in cell culture: stimulates the growth
Fibroblast cell cultures
  recovery of ATP to pre-hypoxia levels (of base ATP levels): 19%
